Measurements taken from the kinase profiling compilation of Christmann-Franck et al. (2016).

Legend:
Assay in all cases: radiometric filter-binding kinase assay
CHEK2 (human) = CHEK2 (human) (UniProt O96017)
NEK7 (human) = NEK7 (human) (UniProt Q8TDX7)
MARK3 (human) = MARK3 (human) (UniProt P27448)
CAMKK1 (human) = CAMKK1 (human) (UniProt Q8N5S9)
AURKC (human) = AURKC (human) (UniProt Q9UQB9)
ABL1 (human) = ABL1 (human) (UniProt P00519)
PDGFRA (human) = PDGFRA (human) (UniProt P16234)
TEK (human) = TEK (human) (UniProt Q02763)
TEK (human), sequence (Q02763 whole entry, looked up): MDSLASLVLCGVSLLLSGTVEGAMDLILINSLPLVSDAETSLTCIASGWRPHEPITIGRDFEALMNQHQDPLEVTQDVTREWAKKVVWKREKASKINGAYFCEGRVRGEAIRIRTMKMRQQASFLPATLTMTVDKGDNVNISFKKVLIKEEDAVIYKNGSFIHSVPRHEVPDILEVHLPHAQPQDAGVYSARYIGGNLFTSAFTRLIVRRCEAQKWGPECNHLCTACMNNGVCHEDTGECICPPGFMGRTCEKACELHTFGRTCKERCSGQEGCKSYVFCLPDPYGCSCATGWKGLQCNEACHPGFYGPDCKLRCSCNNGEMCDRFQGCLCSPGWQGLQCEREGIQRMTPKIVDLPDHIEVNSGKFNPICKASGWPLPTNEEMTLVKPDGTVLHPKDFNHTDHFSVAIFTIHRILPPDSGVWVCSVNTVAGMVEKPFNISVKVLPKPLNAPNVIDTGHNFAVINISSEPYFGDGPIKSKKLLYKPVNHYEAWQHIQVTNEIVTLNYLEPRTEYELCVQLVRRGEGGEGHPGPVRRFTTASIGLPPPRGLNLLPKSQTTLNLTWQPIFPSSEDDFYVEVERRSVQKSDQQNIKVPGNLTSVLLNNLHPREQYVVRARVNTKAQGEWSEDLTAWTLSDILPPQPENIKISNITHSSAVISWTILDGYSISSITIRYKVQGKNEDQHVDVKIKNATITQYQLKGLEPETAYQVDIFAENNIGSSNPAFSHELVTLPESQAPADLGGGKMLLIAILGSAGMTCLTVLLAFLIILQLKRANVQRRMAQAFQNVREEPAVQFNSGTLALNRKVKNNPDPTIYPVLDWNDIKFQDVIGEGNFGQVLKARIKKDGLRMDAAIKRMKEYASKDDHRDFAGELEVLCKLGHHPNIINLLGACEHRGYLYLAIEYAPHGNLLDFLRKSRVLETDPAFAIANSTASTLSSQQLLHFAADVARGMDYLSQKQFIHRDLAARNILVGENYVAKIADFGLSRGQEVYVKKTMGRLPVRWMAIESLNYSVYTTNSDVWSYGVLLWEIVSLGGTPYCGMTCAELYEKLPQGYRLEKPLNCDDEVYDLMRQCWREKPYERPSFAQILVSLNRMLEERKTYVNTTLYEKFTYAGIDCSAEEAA

TTBK1 (human) = TTBK1 (human) (UniProt Q5TCY1)
STK33 (human) = STK33 (human) (UniProt Q9BYT3)
STK16 (human) = STK16 (human) (UniProt O75716)
[1] = tested on: OXSR1 (human), O95747 [T185E]
OXSR1 (human), O95747 [T185E], sequence (O95747 whole entry T185E, looked up): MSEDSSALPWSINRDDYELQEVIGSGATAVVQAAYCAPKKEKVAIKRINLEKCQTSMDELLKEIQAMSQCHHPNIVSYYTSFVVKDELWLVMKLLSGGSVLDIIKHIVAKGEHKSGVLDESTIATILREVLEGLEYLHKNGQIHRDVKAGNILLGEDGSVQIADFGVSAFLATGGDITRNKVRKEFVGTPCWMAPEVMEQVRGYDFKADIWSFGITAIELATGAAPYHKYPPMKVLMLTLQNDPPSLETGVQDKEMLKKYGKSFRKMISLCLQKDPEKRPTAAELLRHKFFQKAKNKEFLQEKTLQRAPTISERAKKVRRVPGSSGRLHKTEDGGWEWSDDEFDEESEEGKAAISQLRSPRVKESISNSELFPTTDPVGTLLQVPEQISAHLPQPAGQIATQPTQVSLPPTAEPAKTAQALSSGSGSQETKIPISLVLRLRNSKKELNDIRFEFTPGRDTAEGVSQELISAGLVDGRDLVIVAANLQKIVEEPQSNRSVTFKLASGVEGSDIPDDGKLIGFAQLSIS

STK24 (human) = STK24 (human) (UniProt Q9Y6E0)
CDK9 CCNT1 (human) = CDK9 CCNT1 (human) (UniProt P50750+O60563)
PRKCG (human) = PRKCG (human) (UniProt P05129)
PTK6 (human) = PTK6 (human) (UniProt Q13882)
MAP4K5 (human) = MAP4K5 (human) (UniProt Q9Y4K4)
SIK2 (human) = SIK2 (human) (UniProt Q9H0K1)
ULK2 (human) = ULK2 (human) (UniProt Q8IYT8)
EIF2AK3 (human) = EIF2AK3 (human) (UniProt Q9NZJ5)
ZAP70 (human) = ZAP70 (human) (UniProt P43403)
[2] = target: PRKAA1 PRKAB2 PRKAG1 (human) (UniProt O43741+Q13131+P54619)
TSSK1B (human) = TSSK1B (human) (UniProt Q9BXA7)
TESK1 (human) = TESK1 (human) (UniProt Q15569)
MAPK7 (human) = MAPK7 (human) (UniProt Q13164)
MAPK7 (human), sequence (Q13164 whole entry, looked up): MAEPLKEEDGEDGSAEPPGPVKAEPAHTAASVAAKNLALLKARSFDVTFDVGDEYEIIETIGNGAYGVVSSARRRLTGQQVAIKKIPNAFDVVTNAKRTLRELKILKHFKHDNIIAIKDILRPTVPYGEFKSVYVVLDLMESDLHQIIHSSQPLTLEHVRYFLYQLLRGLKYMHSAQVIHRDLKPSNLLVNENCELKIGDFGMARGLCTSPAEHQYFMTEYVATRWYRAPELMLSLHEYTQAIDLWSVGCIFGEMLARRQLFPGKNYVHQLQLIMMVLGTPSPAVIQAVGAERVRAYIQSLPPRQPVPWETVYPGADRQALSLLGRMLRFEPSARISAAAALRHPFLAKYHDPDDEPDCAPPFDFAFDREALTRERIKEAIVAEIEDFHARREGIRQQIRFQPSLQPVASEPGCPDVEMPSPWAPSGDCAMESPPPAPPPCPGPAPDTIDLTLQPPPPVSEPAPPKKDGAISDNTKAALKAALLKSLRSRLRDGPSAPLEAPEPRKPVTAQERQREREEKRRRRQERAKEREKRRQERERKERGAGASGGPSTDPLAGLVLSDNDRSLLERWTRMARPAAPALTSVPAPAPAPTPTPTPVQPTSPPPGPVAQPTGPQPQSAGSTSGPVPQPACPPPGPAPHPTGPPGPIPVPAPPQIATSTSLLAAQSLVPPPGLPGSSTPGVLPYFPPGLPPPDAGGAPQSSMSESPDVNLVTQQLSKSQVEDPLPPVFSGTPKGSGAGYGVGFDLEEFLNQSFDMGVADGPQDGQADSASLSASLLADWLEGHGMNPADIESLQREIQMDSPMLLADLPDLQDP

WNK1 (human) = WNK1 (human) (UniProt Q9H4A3)
[3] = tested on: TGFBR1 (human), P36897 [T204D]
ULK1 (human) = ULK1 (human) (UniProt O75385)
TLK1 (human) = TLK1 (human) (UniProt Q9UKI8)
TTBK2 (human) = TTBK2 (human) (UniProt Q6IQ55)
DDR2 (human) = DDR2 (human) (UniProt Q16832)
CSNK1G2 (human) = CSNK1G2 (human) (UniProt P78368)
IRAK1 (human) = IRAK1 (human) (UniProt P51617)
SIK3 (human) = SIK3 (human) (UniProt Q9Y2K2)
MAP4K3 (human) = MAP4K3 (human) (UniProt Q8IVH8)

MARK3 (human), sequence (P27448 whole entry, looked up): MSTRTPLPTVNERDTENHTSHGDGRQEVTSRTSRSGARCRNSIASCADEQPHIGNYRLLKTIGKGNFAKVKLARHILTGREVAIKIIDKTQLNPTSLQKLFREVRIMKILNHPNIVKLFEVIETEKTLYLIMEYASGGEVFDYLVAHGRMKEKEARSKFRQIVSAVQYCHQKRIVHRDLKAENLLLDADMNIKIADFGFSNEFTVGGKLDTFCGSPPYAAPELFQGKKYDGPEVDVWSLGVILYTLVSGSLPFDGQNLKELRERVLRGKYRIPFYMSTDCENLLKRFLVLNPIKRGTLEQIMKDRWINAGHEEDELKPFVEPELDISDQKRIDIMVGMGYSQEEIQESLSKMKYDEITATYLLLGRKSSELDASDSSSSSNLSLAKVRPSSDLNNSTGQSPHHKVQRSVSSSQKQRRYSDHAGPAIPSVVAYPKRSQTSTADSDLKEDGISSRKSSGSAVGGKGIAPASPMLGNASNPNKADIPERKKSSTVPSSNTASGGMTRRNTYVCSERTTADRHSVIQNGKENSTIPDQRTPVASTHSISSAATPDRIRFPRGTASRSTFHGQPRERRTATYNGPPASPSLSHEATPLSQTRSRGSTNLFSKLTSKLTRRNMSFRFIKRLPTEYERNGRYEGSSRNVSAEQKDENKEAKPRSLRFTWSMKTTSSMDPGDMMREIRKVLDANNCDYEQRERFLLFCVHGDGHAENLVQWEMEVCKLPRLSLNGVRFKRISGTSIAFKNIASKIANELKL
CHEK2 (human), sequence (O96017 whole entry, looked up): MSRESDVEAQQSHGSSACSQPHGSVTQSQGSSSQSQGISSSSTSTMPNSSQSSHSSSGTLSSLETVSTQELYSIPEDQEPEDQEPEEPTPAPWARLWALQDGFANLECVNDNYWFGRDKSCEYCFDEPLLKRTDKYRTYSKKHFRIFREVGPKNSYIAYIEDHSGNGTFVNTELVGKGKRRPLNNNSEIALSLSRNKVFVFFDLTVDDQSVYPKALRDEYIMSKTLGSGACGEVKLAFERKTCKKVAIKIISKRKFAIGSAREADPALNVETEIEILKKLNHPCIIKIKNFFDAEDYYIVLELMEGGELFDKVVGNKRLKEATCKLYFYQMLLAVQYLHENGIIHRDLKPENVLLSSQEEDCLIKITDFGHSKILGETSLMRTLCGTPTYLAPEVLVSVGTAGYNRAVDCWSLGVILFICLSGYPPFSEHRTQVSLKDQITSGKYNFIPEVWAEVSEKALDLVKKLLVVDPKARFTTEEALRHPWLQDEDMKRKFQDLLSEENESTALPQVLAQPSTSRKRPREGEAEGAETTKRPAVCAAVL
CAMKK1 (human), sequence (Q8N5S9 whole entry, looked up): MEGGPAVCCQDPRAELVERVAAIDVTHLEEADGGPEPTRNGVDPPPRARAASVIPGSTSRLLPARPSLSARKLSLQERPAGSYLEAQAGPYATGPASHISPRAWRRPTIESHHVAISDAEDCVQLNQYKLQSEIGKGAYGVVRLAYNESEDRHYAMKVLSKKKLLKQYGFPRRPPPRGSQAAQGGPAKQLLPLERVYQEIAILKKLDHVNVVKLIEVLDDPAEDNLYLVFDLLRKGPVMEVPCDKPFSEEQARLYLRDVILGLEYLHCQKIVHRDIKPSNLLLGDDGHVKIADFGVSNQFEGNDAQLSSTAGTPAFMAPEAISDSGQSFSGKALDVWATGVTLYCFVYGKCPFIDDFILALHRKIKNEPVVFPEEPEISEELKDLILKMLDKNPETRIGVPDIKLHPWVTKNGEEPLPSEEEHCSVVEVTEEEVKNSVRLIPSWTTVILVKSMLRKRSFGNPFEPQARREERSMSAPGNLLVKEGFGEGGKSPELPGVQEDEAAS

Compound: CCCC(CCC)C(=O)O
- residual activity (CHEK2 (human); compound 1.0 µM): 83%
- residual activity (CHEK2 (human); compound 10.0 µM): 97%
- residual activity (CHEK2 (human); compound 50.0 µM): 95%
- residual activity (NEK7 (human); compound 1.0 µM): 99%
- residual activity (MARK3 (human); compound 1.0 µM): 100%
- residual activity (MARK3 (human); compound 10.0 µM): 108%

Compound: Cn1nc(Nc2ccc(F)cc2)c2c(N)ncnc21
- residual activity (CAMKK1 (human); compound 1.0 µM): 89%
- residual activity (CAMKK1 (human); compound 10.0 µM): 112%
- residual activity (CHEK2 (human); compound 1.0 µM): 103%
- residual activity (CHEK2 (human); compound 10.0 µM): 96%
- residual activity (NEK7 (human); compound 1.0 µM): 94%
- residual activity (NEK7 (human); compound 10.0 µM): 99%
- residual activity (AURKC (human); compound 1.0 µM): 125%
- residual activity (AURKC (human); compound 10.0 µM): 117%
- residual activity (MARK3 (human); compound 1.0 µM): 82%
- residual activity (MARK3 (human); compound 10.0 µM): 79%

Compound: N#Cc1c(O)c2c(-c3ccc(-c4ccccc4O)cc3)csc2[nH]c1=O
- residual activity (CHEK2 (human); compound 10.0 µM): 79%
- residual activity (CHEK2 (human); compound 50.0 µM): 52%
- residual activity (CHEK2 (human); compound 100.0 µM): 33%
- residual activity (NEK7 (human); compound 50.0 µM): 102%
- residual activity (AURKC (human); compound 50.0 µM): 30%
- residual activity (MARK3 (human); compound 10.0 µM): 78%
- residual activity (MARK3 (human); compound 50.0 µM): 87%
- residual activity (MARK3 (human); compound 100.0 µM): 38%

Compound: COC(=O)/C=C/C(=O)OC
- residual activity (ABL1 (human); compound 10.0 µM): 98%
- residual activity (ABL1 (human); compound 100.0 µM): 105%
- residual activity (ABL1 (human); compound 1000.0 µM): 95%
- residual activity (CHEK2 (human); compound 10.0 µM): 90%
- residual activity (CHEK2 (human); compound 100.0 µM): 98%
- residual activity (CHEK2 (human); compound 1000.0 µM): 100%
- residual activity (PDGFRA (human); compound 10.0 µM): 101%
- residual activity (PDGFRA (human); compound 100.0 µM): 103%
- residual activity (PDGFRA (human); compound 1000.0 µM): 104%
- residual activity (TEK (human); compound 10.0 µM): 92%
- residual activity (TEK (human); compound 100.0 µM): 100%
- residual activity (TEK (human); compound 1000.0 µM): 99%
- residual activity (TTBK1 (human); compound 10.0 µM): 88%
- residual activity (TTBK1 (human); compound 100.0 µM): 101%
- residual activity (STK33 (human); compound 10.0 µM): 93%
- residual activity (STK33 (human); compound 100.0 µM): 99%
- residual activity (STK33 (human); compound 1000.0 µM): 102%
- residual activity (STK16 (human); compound 10.0 µM): 114%
- residual activity (STK16 (human); compound 100.0 µM): 116%
- residual activity (STK16 (human); compound 1000.0 µM): 109%
- residual activity ([1]; compound 10.0 µM): 96%
- residual activity ([1]; compound 100.0 µM): 107%
- residual activity ([1]; compound 1000.0 µM): 116%
- residual activity (STK24 (human); compound 100.0 µM): 104%
- residual activity (STK24 (human); compound 1000.0 µM): 112%
- residual activity (CDK9 CCNT1 (human); compound 10.0 µM): 91%
- residual activity (CDK9 CCNT1 (human); compound 100.0 µM): 98%
- residual activity (CDK9 CCNT1 (human); compound 1000.0 µM): 103%
- residual activity (PRKCG (human); compound 10.0 µM): 106%
- residual activity (PRKCG (human); compound 100.0 µM): 113%
- residual activity (PRKCG (human); compound 1000.0 µM): 114%
- residual activity (PTK6 (human); compound 10.0 µM): 102%
- residual activity (PTK6 (human); compound 100.0 µM): 112%
- residual activity (PTK6 (human); compound 1000.0 µM): 110%
- residual activity (MAP4K5 (human); compound 10.0 µM): 91%
- residual activity (MAP4K5 (human); compound 100.0 µM): 87%
- residual activity (SIK2 (human); compound 10.0 µM): 82%
- residual activity (SIK2 (human); compound 100.0 µM): 94%
- residual activity (SIK2 (human); compound 1000.0 µM): 103%
- residual activity (ULK2 (human); compound 10.0 µM): 106%
- residual activity (ULK2 (human); compound 100.0 µM): 109%
- residual activity (ULK2 (human); compound 1000.0 µM): 109%
- residual activity (EIF2AK3 (human); compound 10.0 µM): 95%
- residual activity (EIF2AK3 (human); compound 100.0 µM): 107%
- residual activity (ZAP70 (human); compound 10.0 µM): 116%
- residual activity (ZAP70 (human); compound 100.0 µM): 116%
- residual activity (ZAP70 (human); compound 1000.0 µM): 112%
- residual activity ([2]; compound 10.0 µM): 87%
- residual activity ([2]; compound 100.0 µM): 95%
- residual activity ([2]; compound 1000.0 µM): 102%
- residual activity (TSSK1B (human); compound 10.0 µM): 73%
- residual activity (TSSK1B (human); compound 100.0 µM): 85%
- residual activity (TSSK1B (human); compound 1000.0 µM): 80%
- residual activity (TESK1 (human); compound 10.0 µM): 84%
- residual activity (TESK1 (human); compound 100.0 µM): 89%
- residual activity (TESK1 (human); compound 1000.0 µM): 109%
- residual activity (MAPK7 (human); compound 10.0 µM): 88%
- residual activity (MAPK7 (human); compound 100.0 µM): 94%
- residual activity (MAPK7 (human); compound 1000.0 µM): 97%
- residual activity (WNK1 (human); compound 10.0 µM): 109%
- residual activity (WNK1 (human); compound 100.0 µM): 104%
- residual activity (WNK1 (human); compound 1000.0 µM): 114%
- residual activity ([3]; compound 10.0 µM): 93%
- residual activity ([3]; compound 1000.0 µM): 95%
- residual activity (ULK1 (human); compound 10.0 µM): 97%
- residual activity (ULK1 (human); compound 100.0 µM): 99%
- residual activity (ULK1 (human); compound 1000.0 µM): 103%
- residual activity (TLK1 (human); compound 10.0 µM): 103%
- residual activity (TLK1 (human); compound 100.0 µM): 117%
- residual activity (TLK1 (human); compound 1000.0 µM): 110%
- residual activity (TTBK2 (human); compound 10.0 µM): 96%
- residual activity (TTBK2 (human); compound 100.0 µM): 99%
- residual activity (TTBK2 (human); compound 1000.0 µM): 96%
- residual activity (DDR2 (human); compound 10.0 µM): 103%
- residual activity (DDR2 (human); compound 100.0 µM): 100%
- residual activity (CSNK1G2 (human); compound 10.0 µM): 92%
- residual activity (CSNK1G2 (human); compound 100.0 µM): 101%
- residual activity (CSNK1G2 (human); compound 1000.0 µM): 101%
- residual activity (IRAK1 (human); compound 10.0 µM): 101%
- residual activity (IRAK1 (human); compound 100.0 µM): 100%
- residual activity (IRAK1 (human); compound 1000.0 µM): 97%
- residual activity (MARK3 (human); compound 100.0 µM): 108%
- residual activity (MARK3 (human); compound 1000.0 µM): 132%
- residual activity (SIK3 (human); compound 10.0 µM): 98%
- residual activity (SIK3 (human); compound 1000.0 µM): 110%
- residual activity (MAP4K3 (human); compound 10.0 µM): 92%
- residual activity (MAP4K3 (human); compound 100.0 µM): 81%
- residual activity (MAP4K3 (human); compound 1000.0 µM): 85%
